Laboratory results as given in patent publication US6627632B2, “Compositions and methods for the treatment of anorectal disorders” (Cellegy Pharmaceuticals, Inc., priority 1998, dated 2003).
Where a name gives a salt, the structure may show the parent alone.

What was measured:
internal anal sphincter = assay: rat internal anal sphincter (IAS) relaxation model: internal anal sphincter pressure (IASP) in anesthetized rats; assay type: in vivo; details: for relaxation of the rat IAS / reduction of IASP (summary statement in the description): rat IAS in vivo, no dose stated; for potentiation with NTG, comparison of PDE V inhibitors (summary): in vivo model, i.p. PDE V inhibitor plus NTG; for drop of IASP: subsequent dose of 1% nitroglycerin, morning after dibutyryl-cGMP
Description: Male Sprague-Dawley rats (300-400 gm) were anesthetized with ketamine (90 mg/kg), xylazine (9 mg/kg) given intramuscularly and supplemented as needed with ⅓^rd dose. Rats were gently restrained on their backs on a heated surgical table (Harvard Apparatus) for the duration of the experiments. The diuretic effects of anesthesia was offset by rehydration with saline through an intraperitoneal implanted 24 gauge angiocatheter (VWR, San Francisco, Calif.). The constriction/relaxation measurement assembly included a Millar catheter/transducer (1.67 mm diameter.) connected to a Digi-Med Low Pressure Analyzer (Micro-Med) accurate for pressure measurements between −50 and 150 mmHg. The data were integrated and converted to waveforms with the Digi-Med System Integrator software. Blood pressure changes were monitored using an arterial catheter/transducer and a Digi-Med Blood Pressure Analyzer with the DMSI software. Respiratory changes were monitored using a mercury strain gauge/transducer, wrapped around the rib-cage of the rat, hooked up to a Digi-Med Analog Signal Analyzer along with the DMSI software. Drug delivery was accomplished through two Hamilton syringes with no dead space using PE 10 tubing adjacent to the catheter sensor.
In this example, male Sprague-Dawley rats (250-300 g each) from Charles River were used. The rats were anesthetized intramuscularly with ketamine (90 mg/kg) and xylazine (9 mg/kg) and kept warm on a heated surgical table. All internal anal sphincter pressures (IASP) were measured with Millar catheter/transducers (MPC-500 mikrotip; Millar Instruments, Houston) on low pressure analyzers and blood pressure analyzers and recorded by DMSI software provided by Micro-Med (Louisville). Rats were provided with saline i.p. for rehydration due to the diuretic effects of the anesthesia and re-anesthetized as needed with approximately ⅓ the original dosage. In most experiments, the IASP was allowed to reach a stable baseline level prior to drug delivery. Drugs were delivered to the anal sphincter mainly via PE 20 tubing attached to the catheter(s) near the sensor(s) from 100 μl or 250 μl Hamilton syringes either manually or by infusion with a programmable Harvard automatic infusion pump.

[1] = cardiovascular tolerance to repeated NTG dosing, measured in vivo by mean arterial blood pressure; details: rat model, repeated dosing of NTG
Source text: (§1) One issue with chronic or subchronic therapy with nitric oxide or nitric oxide donors such as NTG is the extent of any tachyphylaxis or tolerance to the relaxant effect of nitric oxide. Clinical studies have shown that the human cardiovascular system develops tolerance to nitric oxide donors. […] Thus, it seemed likely that the IAS would also develop tolerance to the effects of nitric oxide upon repeated or prolonged dosing.

vascular smooth muscle = assay: in vitro assay of NTG-induced increases in cGMP levels in vascular smooth muscle
Source text: as §1

muscle of the IAS = assay: in vitro study of NTG-induced increases in cGMP levels in the muscle of the IAS; details: compared with vascular smooth muscle
[2] = in 5% DMSO/Acetone:Olive oil 1:1, infused continuously at 20 μg/hour
[3] = in saline, infused continuously to the IAS at 20 μg/hour
[4] = 10 mg in 100 μl 1M2P i.p. 30 minutes prior to NTG bolus doses (20 μg/min every 30 minutes)
[5] = continuously infused at 20 μg/hour in 5% dextrose

## O=C(O)c1ccc(C2=C3C=CC(=N3)C(c3ccc(C(=O)O)cc3)=c3ccc([nH]3)=C(c3ccc(C(=O)O)cc3)c3ccc([n-]3)C(c3ccc(C(=O)O)cc3)c3ccc2[n-]3)cc1.[Cl-].[Mn+3] (stereo not shown) [MnTBAP, Mn (III) tetrakis (4-benzoic acid) porphyrin chloride]
Internal anal sphincter; rat IASP model, superoxide scavenger with NTG
  NO enhancing activity: did not demonstrate significant NO enhancing activity

## CCCC(=O)Nc1nc2c(ncn2C2OC3COP(=O)([O-])OC3C2OC(=O)CCC)c(=O)[nH]1.[Na+] (stereo not shown) [dibutyryl-cGMP, N2,2′-O-Dibutyrylguanosine-3′,5′-cyclic monophosphate, sodium salt]
Internal anal sphincter; 20 μl of a 10% solution in saline applied to the anal canal, over 2.5 hours following treatment
  reduction of mean IASP: 45%
Internal anal sphincter; 20 μl of a 10% solution in saline, by the following morning
  IASP still reduced: 34%
Internal anal sphincter; 20 μl of a 10% solution in saline, over the last hour prior to terminating the experiment
  drop of average IASP: 60%
Internal anal sphincter; further dose after IASP returned to pre-treatment levels, over the ensuing 3 hours and 10 minutes
  lowering of IASP: 15%

## COc1cc2nc(N3CCN(C(=O)c4ccco4)CC3)nc(N)c2cc1OC [prazosin]
Internal anal sphincter; in 5% DMSO/Acetone:Olive oil 1:1, infused at 20 μg/hour
  time after which the drop in IASP plateaued: 1 h
Internal anal sphincter; [2]
  effect on IASP: significant and sustained drop in IASP

## CC1=NS(=O)(=O)c2cc(Cl)ccc2N1 [Diazoxide]
Internal anal sphincter; [2]
  effect on IASP: dramatic drop in IASP
Internal anal sphincter
  relaxation of the rat IAS / reduction of IASP (summary statement in the description): relaxed the rat IAS in vivo

## OCCN(CCO)c1nc(N2CCCCC2)c2nc(N(CCO)CCO)nc(N3CCCCC3)c2n1 [Dipyridamole]
Internal anal sphincter; 10 mg in 100 μl 1M2P i.p. 50 minutes prior to NTG bolus doses (20 μg/min every 30 minutes)
  duration of depression of IASP due to NTG relative to the vehicle-treated rat: approximately twice
Internal anal sphincter
  potentiation with NTG, comparison of PDE V inhibitors (summary): less striking potentiation with NTG

## CC(C)(C)NCC(O)c1ccc(O)c(CO)c1 (stereo not shown) [salbutamol]
Internal anal sphincter; 200 μg in saline delivered to the IAS, alone
  short-term effect on IASP: no short-term effects on the IASP
Internal anal sphincter; [3]
  effect on IASP: significant drop in IASP throughout the experiment

## CCCOc1ccccc1-c1nc2nn[nH]c2c(=O)[nH]1 [zaprinast]
Internal anal sphincter; 10 mg i.p. 2.75 hours prior to NTG bolus doses, time after i.p. dose
  time at which duration of IASP depression by NTG peaked: 3.5 to 4 h
Internal anal sphincter; [4]
  duration of IASP depression by NTG (potentiation of NTG): increasing duration of IASP depression with consecutive doses of NTG
Internal anal sphincter; 10 mg in 100 μl 1M2P i.p. 2.75 hours prior to NTG bolus doses (20 μg/min every 30 minutes)
  duration of IASP depression by NTG (potentiation of NTG): continued to increase with each NTG dose
Internal anal sphincter; 20 μL of a 5% solution in 1-methyl-2-pyrrolidinone, over 32 minutes
  reduction of mean IASP compared with vehicle treatment alone: 21%

## CC(C)(C)NCC(O)c1cc(O)cc(O)c1 (stereo not shown) [terbutaline]
Internal anal sphincter; [3]
  effect on IASP: steady and sustained decline in IASP

## CCCCOc1cc(CC2CNC(=O)N2)ccc1OC (stereo not shown) [RO-20-1724, 4-(3-Butoxy-4-methoxybenzyl)-2-imidazolidinone]
Internal anal sphincter; [2]
  effect on IASP: minimal

## COc1ccc(CCN(C)CCCC(C#N)(c2ccc(OC)c(OC)c2)C(C)C)cc1OC (stereo not shown) [Verapamil]
Internal anal sphincter; [3]
  effect on IASP: dramatic and sustained drop in IASP

## CC(C)Cn1c(=O)n(C)c(=O)c2[nH]cnc21 [IBMX, 3-Isobutyl-1-methylxanthine]
Internal anal sphincter; in 5% DMSO/Acetone:Olive oil 1:1, infused at 200 μg/hour
  effect on IASP: significant and sustained drop in IASP
Internal anal sphincter; in 5% DMSO/Acetone:Olive oil 1:1, infused at 200 μg/hour, after initiation of the infusion
  time at which the drop in IASP leveled off: 1 h
Internal anal sphincter; [2]
  effect on IASP: similar

## Cn1c(=O)c2[nH]cnc2n(C)c1=O [Theophylline]
Internal anal sphincter; continuously infused at 2 μg/hour in 5% dextrose, 3 hour experiment
  effect on IASP: minimal drop in average IASP
Internal anal sphincter; [5]
  effect on IASP: moderate drop in average IASP
Internal anal sphincter; continuously infused at 200 μg/hour in 5% dextrose, 4 hour experiment
  effect on IASP: dramatic and sustained drop in IASP
Internal anal sphincter
  relaxation of the rat IAS / reduction of IASP (summary statement in the description): relaxed the rat IAS

## NCCc1cc(O)c(O)cc1O [6-hydroxydopamine]
Internal anal sphincter; 200 μg bolus in saline to the IAS each day for 5 days, day 19
  course of IASP by day 19: partial recovery in IASP
Internal anal sphincter; 200 μg bolus in saline to the IAS each day for 5 days, day 22
  average IASP below the original baseline pressure: 36%
Internal anal sphincter; 200 μg bolus in saline to the IAS each day for 5 days, through day 16, 11 days after termination of treatment
  course of IASP through day 16: continuous drop in IASP
Internal anal sphincter; following 5 daily topical doses of 200 μg in saline
  period of prolonged reduction in IASP: ≥ 3 week

## CCCC(=O)Nc1ncnc2c1ncn2[C@@H]1O[C@@H]2COP(=O)(O)O[C@H]2[C@H]1OC(=O)CCC [Dibutyryl cAMP, N6,2′-O-Dibutyryladenosine-3′,5′-cyclic monophosphate, sodium salt monohydrate]
Internal anal sphincter; [3]
  effect on IASP: minor depression in IASP
Internal anal sphincter; rat model, aqueous-soluble analogs
  efficacy of cAMP analogs relative to each other: more efficacious in the rat model than the 8-bromo derivative

## O=[N+]([O-])OCC(CO[N+](=O)[O-])O[N+](=O)[O-] [nitroglycerin]
Internal anal sphincter; 0.1% NTG in 5% dextrose/water with 1% propylene glycol, bolus doses to the IAS at 20 μg/min every 30 minutes
  effect on resting IASP: dramatic drop in resting IASP followed by a complete recovery to resting levels
Internal anal sphincter; continuous NTG administration, 20 μg/hour, 4 hours
  nitrate related pressure tolerance: no nitrate related pressure tolerance was noted
Internal anal sphincter; continuous infusion of NTG at 20 μg/hour, 4 hours
  effect on resting IASP: steady and sustained decline in resting IASP
Internal anal sphincter; control: vehicle 1M2P 100 μl i.p. 30 minutes prior to NTG bolus doses (20 μg/min every 30 minutes)
  duration of depression of IASP due to NTG: constant with each dose
Internal anal sphincter; control: vehicle 1M2P 100 μl i.p. 50 minutes prior to NTG bolus doses (20 μg/min every 30 minutes)
  duration of depression of IASP due to NTG: constant with each dose
Internal anal sphincter; control: vehicle 1M2P 100 μl i.p., first NTG dose after 2.75 hours (20 μg/min every 30 minutes)
  duration of depression of IASP due to NTG: consistent with each NTG dose
Internal anal sphincter; repeated NTG bolus administration, 20 μg/min every 30 minutes
  nitrate related pressure tolerance: no nitrate related pressure tolerance was noted
Internal anal sphincter; repeated or prolonged dosing in vivo
  tachyphylaxis to the relaxant effect on the IAS: does not develop
Internal anal sphincter; first 10 minutes following treatment
  drop of IASP: 71%
Internal anal sphincter; for 30 minutes
  drop of IASP: 24%
[1]
  cardiovascular tolerance (mean arterial blood pressure): develops with repeated dosing
Vascular smooth muscle
  NTG-induced increases in cGMP levels: attenuated dramatically
Muscle of the IAS
  NTG-induced increases in cGMP levels: not as attenuated as those in vascular smooth muscle

## Cn1c(=O)c2c(ncn2CC(O)CO)n(C)c1=O (stereo not shown) [dyphylline, 7-(2,3-dihydroxypropyl) theophylline]
Internal anal sphincter; [5]
  effect on IASP: IAS relaxing effects
Internal anal sphincter
  relaxation of the rat IAS / reduction of IASP (summary statement in the description): reduce IASP

## COc1ccc(C2CNC(=O)C2)cc1OC1CCCC1 (stereo not shown) [rolipram]
Internal anal sphincter; [2]
  effect on IASP: significant drops in IASP followed by shorter recovery phases

## Nc1cc(N2CCCCC2)nc(N)[n+]1[O-] [minoxidil]
Internal anal sphincter; single 20 μl dose of a 4% solution in 62.5% propylene glycol, over 2.5 hours following treatment
  reduction of the IASP: 64%

## Clc1ccc2ncnc(NCc3ccc4c(c3)OCO4)c2c1 [MBCQ, 4-((3,4-(Methylenedioxy)benzyl)amino)-6-chloroquinazoline]
Internal anal sphincter; [4]
  potentiation of NTG: No noticeable potentiation of NTG
Internal anal sphincter
  potentiation with NTG, comparison of PDE V inhibitors (summary): did not demonstrate significant activity

## CC(C)NCC(O)c1ccc(O)c(O)c1 (stereo not shown) [isoproterenol]
Internal anal sphincter; 100 μl 1M2P vehicle i.p., 30 minutes later continuous infusion in saline at 0.2 μg/hour (sub-threshold dose)
  effect on IASP: no significant effect on lowering IASP
Internal anal sphincter; bolus dose of 200 μg to the IAS
  effect on IASP: dramatic drop in IASP

## COc1ccc([C@@H]2Sc3ccccc3N(CCN(C)C)C(=O)[C@@H]2OC(C)=O)cc1 [Diltiazem]
Internal anal sphincter; [3]
  effect on IASP: dramatic and sustained drop in IASP
